Earlier results on one substance are cited in patent publication US9950967B2, “Titanium-containing formulation and method of preparation of titanium-containing formulation” (INTERMAG Sp. z.o.o., priority 2013, dated 2018).

The data set has as its system plants. As to conditions: I. Pais, J. Plant Nutr. 6:3-133, 1983.

Regarding titanium, the increases the yield is on record as 10-20%.
